Assay results taken from patent US20230365542A1, “Selective Agonists of 5-HT2A Receptor and Methods of Use” (Yale University, priority 2020, published 2023).
Read-outs that look alike come from different tables or passages of the source.

Experiments:
[1] = biological target: T1, 5-HT2BR (Homo sapiens, UniProt P41595); experiment: Calcium flux assay (FLIPR, Fluo-4), 5-HT2BR stable cell line; type: cell-based; conditions: for 5-HT2BR Rmax ± S.E.M: value in parentheses
T1 construct: expressed in transfected cells; host or cells: Flp-In 293 T-Rex (tetracycline inducible)
T1 sequence (P41595 whole entry): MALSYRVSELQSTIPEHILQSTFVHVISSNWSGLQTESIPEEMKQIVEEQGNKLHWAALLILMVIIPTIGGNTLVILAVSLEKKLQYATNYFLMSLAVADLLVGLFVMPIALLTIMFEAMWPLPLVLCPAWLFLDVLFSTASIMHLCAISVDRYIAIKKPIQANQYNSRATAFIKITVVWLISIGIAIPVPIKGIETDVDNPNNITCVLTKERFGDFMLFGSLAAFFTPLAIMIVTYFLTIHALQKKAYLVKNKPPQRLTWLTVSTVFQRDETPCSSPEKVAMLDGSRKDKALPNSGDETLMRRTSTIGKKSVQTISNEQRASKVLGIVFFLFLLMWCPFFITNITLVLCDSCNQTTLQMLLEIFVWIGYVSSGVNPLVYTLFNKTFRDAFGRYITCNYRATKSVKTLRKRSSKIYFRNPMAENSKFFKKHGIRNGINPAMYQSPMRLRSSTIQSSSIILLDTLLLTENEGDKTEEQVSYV
Description: Stable cell lines for 5-HT2AR, 5-HT2BR and 5-HT2CR generated using the Flp-In 293 T-Rex Tetracycline inducible system (Invitrogen). Tetracycline-induced cells were seeded in 384-well poly-L-lysine plates at a density of 10,000 cells/well in DMEM containing 1% dialyzed FBS at least 16-24 hr before the calcium flux assay. On the day of the assay, the cells were incubated (20 ul/well) for 1 hr at 37° C. with Fluo-4 Direct dye (Invitrogen) reconstituted in FLIPR buffer (1×HBSS, 2.5 mM probenecid, and 20 mM HEPES, pH 7.4). After dye loading, cells were placed in a FLIPR^TETRA fluorescence imaging plate reader ([…]). Drug dilutions were prepared at 3× final concentration in drug buffer (1×HBSS, 20 mM HEPES, 0.1% BSA, 0.01% ascorbic acid, pH 7.4) and aliquoted into 384-well plates and placed in the FLIPR^TETRA for drug stimulation. The fluidics module and plate reader of the FLIPR^TETRA were programmed to read baseline fluorescence for 10s (1 read/s), then 10 ul of drug/well was added and read for 5 min (1 read/s). Fluorescence in each well was normalized to the average of the first 10 reads (i.e., baseline fluorescence). Then, the maximum-fold increase, which occurred within the first 60 s after drug addition, was determined and fold over baseline was plotted as a function of drug concentration. Data were normalized to % 5-HT stimulation and analyzed using “log(agonist) vs. response” in GraphPad Prism 9.0.

[2] = biological target: T2, 5-HT2CR (Homo sapiens, UniProt P28335); experiment: 5-HT2CR binding affinity (Ki), Table 8; conditions: read-out: 5-HT2CR Ki
T2 sequence (P28335 33-458): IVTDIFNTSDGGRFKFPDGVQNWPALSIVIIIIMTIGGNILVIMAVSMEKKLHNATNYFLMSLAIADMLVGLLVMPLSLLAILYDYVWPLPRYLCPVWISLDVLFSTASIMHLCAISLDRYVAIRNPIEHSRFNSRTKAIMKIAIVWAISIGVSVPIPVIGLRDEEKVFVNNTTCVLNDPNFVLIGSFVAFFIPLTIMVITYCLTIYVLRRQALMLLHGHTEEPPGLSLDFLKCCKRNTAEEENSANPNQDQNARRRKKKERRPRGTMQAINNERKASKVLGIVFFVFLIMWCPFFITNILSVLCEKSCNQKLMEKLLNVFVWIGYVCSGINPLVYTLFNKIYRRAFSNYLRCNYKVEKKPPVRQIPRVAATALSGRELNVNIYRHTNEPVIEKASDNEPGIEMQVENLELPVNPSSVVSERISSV

[3] = biological target: T3, 5-HT2AR (Homo sapiens, UniProt P28223); experiment: 5-HT2AR binding affinity (Ki), Table 8
T3 construct: expressed in transfected cells; host or cells: Flp-In 293 T-Rex (tetracycline inducible)
T3 sequence (P28223 whole entry): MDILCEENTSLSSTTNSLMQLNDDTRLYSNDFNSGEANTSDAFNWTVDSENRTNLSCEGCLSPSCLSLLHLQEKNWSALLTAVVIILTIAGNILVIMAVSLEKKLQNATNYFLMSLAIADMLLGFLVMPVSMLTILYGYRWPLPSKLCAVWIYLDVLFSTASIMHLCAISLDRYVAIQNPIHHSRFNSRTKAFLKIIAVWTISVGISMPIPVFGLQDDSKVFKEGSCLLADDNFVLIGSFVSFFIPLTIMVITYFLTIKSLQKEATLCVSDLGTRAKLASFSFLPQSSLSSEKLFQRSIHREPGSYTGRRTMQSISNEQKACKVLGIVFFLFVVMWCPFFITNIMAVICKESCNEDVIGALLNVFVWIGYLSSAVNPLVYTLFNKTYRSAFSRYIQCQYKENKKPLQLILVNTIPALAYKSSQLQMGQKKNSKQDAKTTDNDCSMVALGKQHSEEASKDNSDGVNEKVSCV

[4] = biological target: T3, 5-HT2AR; experiment: Calcium flux assay (FLIPR, Fluo-4), 5-HT2AR stable cell line; type: cell-based; conditions: for 5-HT2AR Rmax ± S.E.M: value in parentheses
Description: Stable cell lines for 5-HT2AR, 5-HT2BR and 5-HT2CR generated using the Flp-In 293 T-Rex Tetracycline inducible system (Invitrogen). Tetracycline-induced cells were seeded in 384-well poly-L-lysine plates at a density of 10,000 cells/well in DMEM containing 1% dialyzed FBS at least 16-24 hr before the calcium flux assay. On the day of the assay, the cells were incubated (20 ul/well) for 1 hr at 37° C. with Fluo-4 Direct dye (Invitrogen) reconstituted in FLIPR buffer (1×HBSS, 2.5 mM probenecid, and 20 mM HEPES, pH 7.4). After dye loading, cells were placed in a FLIPR^TETRA fluorescence imaging plate reader (Molecular Dynamics). Drug dilutions were prepared at 3× final concentration in drug buffer (1×HBSS, 20 mM HEPES, 0.1% BSA, 0.01% ascorbic acid, pH 7.4) and aliquoted into 384-well plates and placed in the FLIPR^TETRA for drug stimulation. The fluidics module and plate reader of the FLIPR^TETRA were programmed to read baseline fluorescence for 10s (1 read/s), then 10 ul of drug/well was added and read for 5 min (1 read/s). Fluorescence in each well was normalized to the average of the first 10 reads (i.e., baseline fluorescence). Then, the maximum-fold increase, which occurred within the first 60 s after drug addition, was determined and fold over baseline was plotted as a function of drug concentration. Data were normalized to % 5-HT stimulation and analyzed using “log(agonist) vs. response” in GraphPad Prism 9.0.

[5] = biological target: T1, 5-HT2BR; experiment: 5-HT2BR binding affinity (Ki), Table 8
[6] = bracketed value below EC50, read-out: 5-HT2BR pEC50 ± S.E.M (converted)
[7] = bracketed value below Ki, read-out: 5-HT2BR pKi ± S.E.M (converted)
[8] = bracketed value below EC50, read-out: 5-HT2AR pEC50 ± S.E.M (converted)
[9] = bracketed value below Ki, read-out: 5-HT2AR pKi ± S.E.M (converted)

| SMILES | EC50 [1, 6] [nM] | EC50 ([1]; read-out: 5-HT2BR EC50) [nM] | 5-HT2BR Rmax ± S.E.M [1] | Ki [2] [nM] | Ki ([3]; read-out: 5-HT2AR Ki) [nM] | EC50 ([4]; read-out: 5-HT2AR EC50) [nM] | Ki [5, 7] [nM] | Ki ([5]; read-out: 5-HT2BR Ki) [nM] | 5-HT2BR EC50 [1] | 5-HT2AR Rmax ± S.E.M [4] | EC50 [4, 8] [nM] | Ki [3, 9] [nM] | 5-HT2AR EC50 [4] |
| --- | --- | --- | --- | --- | --- | --- | --- | --- | --- | --- | --- | --- | --- |
| C[C@H]1C=C(c2c[nH]c3ncccc23)CN(CC2(C)COC2)C1 [compound 26, (S)-3-(5-methyl-1-((3-methyloxetan-3-yl)methyl)-1,2,5,6-tetrahydropyridin-3-yl)-1H-pyrrolo[2,3-b]pyridine] | 9120 | 9230 | (71.0% | > 10000 | > 10000 | > 10000 | 5750 | 5830 |  |  |  |  |  |
| C[C@@H]1C=C(c2cncc(Cl)c2)CN(CCC2CCCC2)C1 [Compound 19, 5′-chloro-1-(2-cyclopentylethyl)-5-methyl-1,2,5,6-tetrahydro-3,3′-bipyridine] |  |  |  | > 10000 | > 10000 | 4310 |  | 570 | antagonist | (34.9% |  |  |  |
| C[C@@H]1C=C(c2c[nH]c3ncccc23)CN(CC2(C)COC2)C1 [compound 25, (R)-3-(5-methyl-1-((3-methyloxetan-3-yl)methyl)-1,2,5,6-tetrahydropyridin-3-yl)-1H-pyrrolo[2,3-b]pyridine] |  | 6380 | (44.6% | > 10000 | > 10000 | 4000 |  | 3290 |  | (29.5% |  |  |  |
| CCCCCN1CC(c2cncc(Cl)c2)=C[C@@H](C)C1 [Compound 9, 5′-chloro-5-methyl-1-pentyl-1,2,5,6-tetrahydro-3,3′-bipyridine] |  |  |  | > 10000 | > 10000 | 7630 | 550 | 560 | antagonist | (40.2% | 7760 |  |  |
| CCCCN1CC(c2cncc(Cl)c2)=C[C@@H](C)C1 [Compound 11, 1-butyl-5′-chloro-5-methyl-1,2,5,6-tetrahydro-3,3′-bipyridine] |  |  |  | > 10000 | > 10000 | 4240 | 372 |  | antagonist | (25.0% |  |  |  |
| C[C@H]1C=C(c2c[nH]c3ncccc23)CN(C2COC2)C1 [compound 28, (S)-3-(5-methyl-1-(oxetan-3-yl)-1,2,5,6-tetrahydropyridin-3-yl)-1H-pyrrolo[2,3-b]pyridine] |  | 5240 | (48.1% | > 10000 | > 10000 | > 10000 | 9770 | 9890 |  |  |  |  |  |
| CCCCN1CC(c2c[nH]c3ncccc23)=C[C@@H](C)C1 [Compound 21, 3-(1-butyl-5-methyl-1,2,5,6-tetrahydropyridin-3-yl)-1H-pyrrolo[2,3-b]pyridine] |  |  |  | > 10000 | 2190 | 2160 | 4570 | 2920 | antagonist | (12.8% |  |  |  |
| CCCN1CC(c2c[nH]c3ncccc23)=C[C@@H](C)C1 [Compound 23, 3-(5-methyl-1-propyl-1,2,5,6-tetrahydropyridin-3-yl)-1H-pyrrolo[2,3-b]pyridine] |  |  |  | > 10000 | 1220 |  | 1660 | 1640 | antagonist | (65.6% | 245 | 1200 |  |
| C[C@@H]1C=C(c2cncc(Cl)c2)CN(C)C1 (stereo in doubt) [Compound 17, 5′-chloro-1,5-dimethyl-1,2,5,6-tetrahydro-3,3′-bipyridine] | 26.9 |  | (42.1% | > 10000 | 2100 |  | 30.2 |  |  | (14.9% | 347 |  |  |
| C[C@H]1C=C(c2cncc(Cl)c2)CN(CCC2CCCC2)C1 [Compound 20, 5′-chloro-1-(2-cyclopentylethyl)-5-methyl-1,2,5,6-tetrahydro-3,3′-bipyridine] |  | 85 | (66.2% | > 10000 | 4360 | 540 | 10.7 |  |  | (49.1% |  |  |  |
| C[C@@H]1C=C(c2c[nH]c3ncccc23)CN(CCCc2cnn(C)c2)C1 [compound 43, (R)-3-(5-methyl-1-(3-(1-methyl-1H-pyrazol-4-yl)propyl)-1,2,5,6-tetrahydropyridin-3-yl)-1H-pyrrolo[2,3-b]pyridine] |  | 790 | (39.5% | > 10000 | 670 |  | 692 | 700 |  |  |  | 661 | antagonist |
| CCCCN1CC(c2cncc(C)c2)=C[C@H](C)C1 (stereo in doubt) [Compound 14, 1-Butyl-5,5′-dimethyl-1,2,5,6-tetrahydro-3,3′-bipyridine] | 28.2 |  | (71.7% | > 10000 | > 10000 | 1830 | 30.9 | 30 |  | (57.3% |  |  |  |
| C[C@H]1C=C(c2c[nH]c3ncccc23)CN(CCCc2cnn(C)c2)C1 [compound 44, (S)-3-(5-methyl-1-(3-(1-methyl-1H-pyrazol-4-yl)propyl)-1,2,5,6-tetrahydropyridin-3-yl)-1H-pyrrolo[2,3-b]pyridine] | 355 | 360 | (56.2% | > 10000 | 2370 |  |  | 960 |  | (40.2% | 269 |  |  |
| CCCCN1CC(c2cncc(C)c2)=C[C@@H](C)C1 [Compound 13, 1-Butyl-5,5′-dimethyl-1,2,5,6-tetrahydro-3,3′-bipyridine] |  |  |  | > 10000 | > 10000 | > 10000 |  | 580 | antagonist |  |  |  |  |
| CCCCN1CC(c2cncc(Cl)c2)=C[C@H](C)C1 [Compound 12, 1-butyl-5′-chloro-5-methyl-1,2,5,6-tetrahydro-3,3′-bipyridine] | 22.9 |  | (69.6% | > 10000 | 4540 |  | 7.08 |  |  | (53.0% | 427 |  |  |
| C[C@H]1C=C(c2c[nH]c3ncccc23)CN(CCCN(C)C)C1 [compound 32, (S)-N,N-dimethyl-3-(3-methyl-5-(1H-pyrrolo[2,3-b]pyridin-3-yl)-3,6-dihydropyridin-1(2H)-yl)propan-1-amine] |  |  |  | > 10000 | > 10000 |  |  | 9720 | antagonist |  |  |  | antagonist |
| C[C@H]1C=C(c2c[nH]c3ncccc23)CN(C2CC2)C1 [compound 30, (S)-3-(1-cyclopropyl-5-methyl-1,2,5,6-tetrahydropyridin-3-yl)-1H-pyrrolo[2,3-b]pyridine] |  | 4360 | (58.3% | > 10000 | > 10000 | 3540 |  | 2540 |  | (29.1% |  |  |  |
| C[C@@H]1C=C(c2c[nH]c3ncccc23)CN(C2COC2)C1 [compound 27, (R)-3-(5-methyl-1-(oxetan-3-yl)-1,2,5,6-tetrahydropyridin-3-yl)-1H-pyrrolo[2,3-b]pyridine] |  |  |  | > 10000 | > 10000 | > 10000 |  | > 10000 | antagonist |  |  |  |  |
